# Patent publication US10894784B2, “Heteroarylbenzimidazole compounds” (BAYER PHARMA AKTIENGESELLSCHAFT, priority 2015, dated 2021)
# Target: TBK1 (Homo sapiens (Human), UniProt Q9UHD2)
# Experiment: TBK1 low ATP kinase assay (in vitro assay 1)
# Type: biochemical
# Settings: in vitro assay 1, read-out: TBK1 low ATP kinase assay IC50
# TBK1, sequence (Q9UHD2 whole entry): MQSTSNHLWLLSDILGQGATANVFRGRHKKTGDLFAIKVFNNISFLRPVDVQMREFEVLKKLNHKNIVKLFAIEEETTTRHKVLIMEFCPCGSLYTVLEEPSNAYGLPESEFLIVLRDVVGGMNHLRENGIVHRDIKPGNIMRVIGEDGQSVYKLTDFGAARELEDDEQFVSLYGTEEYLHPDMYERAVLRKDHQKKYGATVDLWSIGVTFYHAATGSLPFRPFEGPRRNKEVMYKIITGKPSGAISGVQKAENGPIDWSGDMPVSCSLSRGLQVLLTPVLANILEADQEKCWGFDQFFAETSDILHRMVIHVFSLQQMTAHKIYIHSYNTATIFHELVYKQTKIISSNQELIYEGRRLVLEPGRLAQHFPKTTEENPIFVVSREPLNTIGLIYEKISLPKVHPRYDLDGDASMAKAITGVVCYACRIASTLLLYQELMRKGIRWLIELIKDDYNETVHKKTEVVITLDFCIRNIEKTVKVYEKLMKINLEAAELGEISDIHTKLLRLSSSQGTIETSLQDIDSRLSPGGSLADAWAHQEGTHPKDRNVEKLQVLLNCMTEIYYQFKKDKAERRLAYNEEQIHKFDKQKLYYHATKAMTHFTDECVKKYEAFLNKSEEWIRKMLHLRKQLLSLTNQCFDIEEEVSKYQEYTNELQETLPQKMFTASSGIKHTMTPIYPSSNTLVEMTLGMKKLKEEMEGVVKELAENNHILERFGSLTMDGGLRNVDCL
row,Compound,IC50 [nM]
1,"CC(c1ccnc(Nc2nc3ccc(-c4cnn(CC5CCC5)c4)cc3[nH]2)c1)N1CCN(C(=O)C2CC2)CC1 (single isomer, unassigned) [Example 59.01.03, (4-{(1R or 1S)-1-[2-({6-[1-(cyclobutylmethyl)-1H-pyrazol-4-yl]-1H-benzimidazol-2-yl}amino)pyridin-4-yl]ethyl}piperazin-1-yl)(cyclopropyl)methanone]",2.59
2,"O=C(C1CC1)N1CCN(Cc2ccnc(Nc3nc4ccc(-c5cnc(Cl)cn5)cc4[nH]3)c2)CC1 [Example 140.03, {4-[(2-{[6-(5-chloropyrazin-2-yl)-1H-benzimidazol-2-yl]amino}pyridin-4-yl)methyl]piperazin-1-yl}(cyclopropyl)methanone]",290
3,"COc1ccc(-c2ccc3nc(Nc4cc(CN5CCN(C(=O)CC(F)(F)F)CC5)ccn4)[nH]c3c2)cn1 [Example 13.03, 3,3,3-trifluoro-1-{4-[(2-{[6-(6-methoxypyridin-3-yl)-1H-benzimidazol-2-yl]amino}pyridin-4-yl)methyl]piperazin-1-yl}propan-1-one]",190
4,"COc1cncnc1-c1ccc2nc(Nc3cc(CN4CCN(C(=O)N5CCCCC5)CC4)ccn3)[nH]c2c1 [Example 35.01.06, {4-[(2-{[6-(5-methoxypyrimidin-4-yl)-1H-benzimidazol-2-yl]amino}pyridin-4-yl)methyl]piperazin-1-yl}(piperidin-1-yl)methanone]",47.9
5,"Cc1noc(-c2ccc3nc(Nc4cc(CN5C[C@@H](C)N(C(=O)C6CC6)C[C@@H]5C)ccn4)[nH]c3c2)n1 [Example 16.02.04, cyclopropyl{(2R,5S)-2,5-dimethyl-4-[(2-{[6-(3-methyl-1,2,4-oxadiazol-5-yl)-1H-benzimidazol-2-yl]amino}pyridin-4-yl)methyl]piperazin-1-yl}methanone]",268
6,"CC(C)c1cc(-c2ccc3nc(Nc4cc(CN5CCN(C(=O)C6CC6)CC5)ccn4)[nH]c3c2)ncn1 [Example 78.02, cyclopropyl(4-{[2-({6-[6-(propan-2-yl)pyrimidin-4-yl]-1H-benzimidazol-2-yl}amino)pyridin-4-yl]methyl}piperazin-1-yl)methanone]",15
7,"Cc1noc(C)c1-c1cc(-c2ccc3nc(Nc4cc(CN5CCN(C(=O)OC(C)(C)C)CC5)ccn4)[nH]c3c2)ncn1 [Example 92.01, tert-butyl 4-{[2-({6-[6-(3,5-dimethyl-1,2-oxazol-4-yl)pyrimidin-4-yl]-1H-benzimidazol-2-yl}amino)pyridin-4-yl]methyl}piperazine-1-carboxylate]",88
8,"COCCCNc1cc(-c2ccc3nc(Nc4cc(CN5CCN(C(=O)OC(C)(C)C)CC5)ccn4)[nH]c3c2)ncn1 [Example 90.01, tert-butyl 4-({2-[(6-{6-[(3-methoxypropyl)amino]pyrimidin-4-yl}-1H-benzimidazol-2-yl)amino]pyridin-4-yl}methyl)piperazine-1-carboxylate]",5.7
9,"CC(c1ccnc(Nc2nc3ccc(-c4cnn(CC5CC5(F)F)c4)cc3[nH]2)c1)N1CCN(C(=O)OC(C)(C)C)CC1 (single isomer, unassigned) [Example 55.01.01, tert-butyl 4-[(1R or 1S)-1-(2-{[6-(1-{[(1R or 1S)-2,2-difluorocyclopropyl]methyl}-1H-pyrazol-4-yl)-1H-benzimidazol-2-yl]amino}pyridin-4-yl)ethyl]piperazine-1-carboxylate]",5.5
10,"CN(C)c1ncnc(-c2ccc3nc(Nc4cc(CN5CCN(C(=O)C6CC6)CC5)ccn4)[nH]c3c2)c1Cl [Example 179.03, (4-{[2-({6-[5-chloro-6-(dimethylamino)pyrimidin-4-yl]-1H-benzimidazol-2-yl}amino)pyridin-4-yl]methyl}piperazin-1-yl)(cyclopropyl)methanone]",1260
11,"Cc1ncc(C)c(-c2ccc3nc(Nc4cc(CN5CCN(C(=O)C6CCC6)CC5)ccn4)[nH]c3c2)n1 [Example 33.04, cyclobutyl{4-[(2-{[6-(2,5-dimethylpyrimidin-4-yl)-1H-benzimidazol-2-yl]amino}pyridin-4-yl)methyl]piperazin-1-yl}methanone]",2120
12,"COc1c(-c2ccc3nc(Nc4cc(C(C)N5CCN(C(=O)C6(C(F)(F)F)CC6)CC5)ccn4)[nH]c3c2)ncnc1N(C)C (single isomer, unassigned) [Example 107.02.04, (4-{(1R or 1S)-1-[2-({6-[6-(dimethylamino)-5-methoxypyrimidin-4-yl]-1H-benzimidazol-2-yl}amino)pyridin-4-yl]ethyl}piperazin-1-yl)[1-(trifluoromethyl)cyclopropyl]methanone]",5.2

# Other lines, results leading:
row,IC50 [nM],Compound
1,350,"CN(C)c1cnc(-c2ccc3nc(Nc4cc(CN5CCN(C(=O)CC(F)(F)F)CC5)ccn4)[nH]c3c2)cn1 [Example 144.02, 1-(4-{[2-({6-[5-(dimethylamino)pyrazin-2-yl]-1H-benzimidazol-2-yl}amino)pyridin-4-yl]methyl}piperazin-1-yl)-3,3,3-trifluoropropan-1-one]"
2,174,"COc1nccc(-c2ccc3nc(Nc4cc(CN5CCN(C(=O)OC(C)(C)C)CC5)ccn4)[nH]c3c2)n1 [Example 25.01.01, tert-butyl 4-[(2-{[6-(2-methoxypyrimidin-4-yl)-1H-benzimidazol-2-yl]amino}pyridin-4-yl)methyl]piperazine-1-carboxylate]"
3,13,"CC(C)(C)OC(=O)N1CCN(Cc2ccnc(Nc3nc4ccc(-c5cc(NCCO)ncn5)cc4[nH]3)c2)CC1 [Example 81.01, tert-butyl 4-({2-[(6-{6-[(2-hydroxyethyl)amino]pyrimidin-4-yl}-1H-benzimidazol-2-yl)amino]pyridin-4-yl}methyl)piperazine-1-carboxylate]"
4,25,"CN(c1cc(-c2ccc3nc(Nc4cc(CN5CCN(C(=O)OC(C)(C)C)CC5)ccn4)[nH]c3c2)ncn1)C1CC1 [Example 157.01, tert-butyl 4-({2-[(6-{6-[cyclopropyl(methyl)amino]pyrimidin-4-yl}-1H-benzimidazol-2-yl)amino]pyridin-4-yl}methyl)piperazine-1-carboxylate]"
5,1,"O=C(C1CC1)N1CCN(Cc2ccnc(Nc3nc4ccc(-c5cc(NC6CC6)ncn5)cc4[nH]3)c2)CC1 [Example 151.03, cyclopropyl(4-{[2-({6-[6-(cyclopropylamino)pyrimidin-4-yl]-1H-benzimidazol-2-yl}amino)pyridin-4-yl]methyl}piperazin-1-yl)methanone]"
6,35,"COCCCS(=O)(=O)N1CCN(Cc2ccnc(Nc3nc4ccc(-c5ncncc5OC)cc4[nH]3)c2)CC1 [Example 35.01.10, N-[4-({4-[(3-methoxypropyl)sulfonyl]piperazin-1-yl}methyl)pyridin-2-yl]-6-(5-methoxypyrimidin-4-yl)-1H-benzimidazol-2-amine]"
7,166,"COc1ccc(-c2ccc3nc(Nc4cc(CN5CCN(C(=O)C6CC6)CC5)ccn4)[nH]c3c2)cn1 [Example 13.02, cyclopropyl{4-[(2-{[6-(6-methoxypyridin-3-yl)-1H-benzimidazol-2-yl]amino}pyridin-4-yl)methyl]piperazin-1-yl}methanone]"
8,13,"CCOc1nccc(-c2ccc3nc(Nc4cc(CN5CCN(C(=O)CC(F)(F)F)CC5)ccn4)[nH]c3c2)n1 [Example 26.01.03, 1-{4-[(2-{[6-(2-ethoxypyrimidin-4-yl)-1H-benzimidazol-2-yl]amino}pyridin-4-yl)methyl]piperazin-1-yl}-3,3,3-trifluoropropan-1-one]"
